For eight molecules, EC50, IC50 and AC50 results are on record in ChEMBL document CHEMBL1201862, “PubChem BioAssay data set” (2004).

For experiment [1], the target named is T1, Short transient receptor potential channel 4 (Mus musculus, UniProt Q9QUQ5).
T1 sequence (Q9QUQ5 whole entry): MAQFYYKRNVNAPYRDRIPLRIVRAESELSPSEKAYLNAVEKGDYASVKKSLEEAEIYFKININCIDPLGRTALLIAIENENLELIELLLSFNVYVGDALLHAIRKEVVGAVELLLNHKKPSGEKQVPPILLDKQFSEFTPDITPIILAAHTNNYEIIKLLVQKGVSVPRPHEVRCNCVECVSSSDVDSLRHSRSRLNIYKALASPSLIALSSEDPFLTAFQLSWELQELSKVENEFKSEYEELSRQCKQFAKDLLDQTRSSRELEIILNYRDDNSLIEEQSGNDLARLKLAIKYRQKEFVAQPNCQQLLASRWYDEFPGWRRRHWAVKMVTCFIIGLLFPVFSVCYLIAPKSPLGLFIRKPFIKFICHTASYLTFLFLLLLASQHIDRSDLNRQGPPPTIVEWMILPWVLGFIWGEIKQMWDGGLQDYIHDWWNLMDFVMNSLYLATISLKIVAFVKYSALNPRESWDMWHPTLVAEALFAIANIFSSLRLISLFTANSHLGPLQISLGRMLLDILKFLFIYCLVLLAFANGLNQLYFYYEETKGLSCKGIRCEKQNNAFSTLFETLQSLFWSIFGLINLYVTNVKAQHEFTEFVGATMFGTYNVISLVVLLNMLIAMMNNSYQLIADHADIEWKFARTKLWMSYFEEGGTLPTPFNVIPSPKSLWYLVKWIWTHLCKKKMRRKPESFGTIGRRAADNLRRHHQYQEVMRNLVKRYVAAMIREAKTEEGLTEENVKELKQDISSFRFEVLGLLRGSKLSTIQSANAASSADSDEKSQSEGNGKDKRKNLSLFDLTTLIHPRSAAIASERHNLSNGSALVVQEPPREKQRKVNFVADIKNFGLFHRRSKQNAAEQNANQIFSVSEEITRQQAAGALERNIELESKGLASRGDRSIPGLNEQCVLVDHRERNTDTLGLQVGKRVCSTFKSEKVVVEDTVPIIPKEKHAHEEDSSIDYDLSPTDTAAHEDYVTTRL
In words: calcium entry via TRPC4 opening agents – cell-based, HEK293 TRPC4/mu-opioid, Fluo-4 calcium, dose response (AID 434937). The format is functional.

The target in experiment [2] is Glyceraldehyde-3-phosphate dehydrogenase (Homo sapiens, UniProt P04406).
Experiment [3] deals with T2, Alkaline phosphatase, tissue-nonspecific isozyme (Homo sapiens, UniProt P05186).
T2 sequence (P05186 whole entry): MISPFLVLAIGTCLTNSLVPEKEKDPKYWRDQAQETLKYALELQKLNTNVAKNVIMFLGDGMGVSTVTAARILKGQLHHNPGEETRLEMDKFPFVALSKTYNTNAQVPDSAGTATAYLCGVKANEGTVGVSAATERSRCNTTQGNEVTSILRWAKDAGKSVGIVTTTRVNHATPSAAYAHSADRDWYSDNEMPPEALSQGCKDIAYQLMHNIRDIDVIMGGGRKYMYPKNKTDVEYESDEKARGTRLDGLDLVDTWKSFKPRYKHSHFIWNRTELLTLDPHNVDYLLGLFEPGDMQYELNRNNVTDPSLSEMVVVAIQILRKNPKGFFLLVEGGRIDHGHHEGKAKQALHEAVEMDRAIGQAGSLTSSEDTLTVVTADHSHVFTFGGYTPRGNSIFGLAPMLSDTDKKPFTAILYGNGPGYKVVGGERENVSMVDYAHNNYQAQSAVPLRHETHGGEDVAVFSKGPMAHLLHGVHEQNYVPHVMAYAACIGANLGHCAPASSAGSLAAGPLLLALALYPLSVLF
In words: potency against alkaline phosphatase TNAP – biochemical, luminescent, dose response, SAR follow-up (AID 1056).

Experiment [4] concerns the target T1, Short transient receptor potential channel 4. In words: block of DAMGO-driven TRPC4 calcium entry – cell-based, HEK293 TRPC4/mu-opioid, Fluo-4 calcium, dose response (AID 434942).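 Further: potency of inhibitors blocking the TRPC4 calcium response.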 The format is functional.
Experiment [5] deals with G-protein coupled receptor 55 (Homo sapiens, UniProt Q9Y2T6). In words: selective activators of receptor GPR55 – imaging, U2OS cells, beta-arrestin-GFP redistribution, primary screen (AID 1961). The format is functional.
The target in experiment [6] is T3, Microphthalmia-associated transcription factor (Homo sapiens, UniProt O75030).
T3 sequence (O75030 whole entry): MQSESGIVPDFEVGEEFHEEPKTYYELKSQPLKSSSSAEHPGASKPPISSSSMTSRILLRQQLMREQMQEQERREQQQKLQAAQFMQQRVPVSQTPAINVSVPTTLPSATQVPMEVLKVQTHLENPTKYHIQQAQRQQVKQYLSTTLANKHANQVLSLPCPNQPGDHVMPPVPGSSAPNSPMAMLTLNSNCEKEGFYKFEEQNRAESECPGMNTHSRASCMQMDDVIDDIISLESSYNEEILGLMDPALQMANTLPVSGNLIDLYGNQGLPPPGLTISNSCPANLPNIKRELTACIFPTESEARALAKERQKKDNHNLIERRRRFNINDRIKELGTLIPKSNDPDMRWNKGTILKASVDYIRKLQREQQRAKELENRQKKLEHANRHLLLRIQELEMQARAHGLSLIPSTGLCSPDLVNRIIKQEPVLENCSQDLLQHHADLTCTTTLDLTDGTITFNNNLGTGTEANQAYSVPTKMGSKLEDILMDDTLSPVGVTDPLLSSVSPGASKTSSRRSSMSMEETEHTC
Briefly: reducers of TRPM1 reporter luminescence, concentration series – cell-based, SK-MEL-5, cherry-picked, set 3, MITF inhibitor project, dose response (AID 493073).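 Further: SK-MEL-5 melanoma cells with luciferase driven by the MITF target TRPM1 promoter.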 The format is functional.

Experiment [7] concerns the target T4, Replicative DNA helicase DnaB (Mycobacterium tuberculosis, UniProt P9WMR3).
T4 sequence (P9WMR3 whole entry): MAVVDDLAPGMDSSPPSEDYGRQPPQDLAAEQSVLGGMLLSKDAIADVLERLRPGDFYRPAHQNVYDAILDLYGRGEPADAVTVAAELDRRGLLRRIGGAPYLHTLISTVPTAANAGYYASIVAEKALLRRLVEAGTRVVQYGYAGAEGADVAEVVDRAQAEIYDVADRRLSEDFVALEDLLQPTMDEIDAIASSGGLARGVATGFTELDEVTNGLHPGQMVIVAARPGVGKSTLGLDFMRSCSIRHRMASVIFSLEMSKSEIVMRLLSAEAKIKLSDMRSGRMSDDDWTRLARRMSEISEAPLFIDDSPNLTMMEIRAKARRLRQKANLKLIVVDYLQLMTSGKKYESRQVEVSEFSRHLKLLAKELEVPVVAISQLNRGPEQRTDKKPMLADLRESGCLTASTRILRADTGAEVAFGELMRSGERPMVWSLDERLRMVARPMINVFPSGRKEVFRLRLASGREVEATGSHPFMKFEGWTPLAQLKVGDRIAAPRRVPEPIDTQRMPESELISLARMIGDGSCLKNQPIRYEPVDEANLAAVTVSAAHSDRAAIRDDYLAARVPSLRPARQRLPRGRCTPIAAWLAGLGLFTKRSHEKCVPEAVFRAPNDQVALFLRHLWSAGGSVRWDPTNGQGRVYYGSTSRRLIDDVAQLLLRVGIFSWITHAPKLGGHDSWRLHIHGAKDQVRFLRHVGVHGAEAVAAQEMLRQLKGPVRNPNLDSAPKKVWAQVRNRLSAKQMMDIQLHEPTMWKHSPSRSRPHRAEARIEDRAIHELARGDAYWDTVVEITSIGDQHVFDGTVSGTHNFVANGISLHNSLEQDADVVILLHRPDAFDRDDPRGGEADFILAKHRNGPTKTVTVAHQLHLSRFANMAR
In words: DnaB intein splicing inhibitors, dose response, biochemical, cell-free fluorescence (AID 449749). In kind it is functional.

Another experiment concerns the target T5, Protein RecA (Mycobacterium tuberculosis, UniProt P9WHJ3).
T5 sequence (P9WHJ3 whole entry): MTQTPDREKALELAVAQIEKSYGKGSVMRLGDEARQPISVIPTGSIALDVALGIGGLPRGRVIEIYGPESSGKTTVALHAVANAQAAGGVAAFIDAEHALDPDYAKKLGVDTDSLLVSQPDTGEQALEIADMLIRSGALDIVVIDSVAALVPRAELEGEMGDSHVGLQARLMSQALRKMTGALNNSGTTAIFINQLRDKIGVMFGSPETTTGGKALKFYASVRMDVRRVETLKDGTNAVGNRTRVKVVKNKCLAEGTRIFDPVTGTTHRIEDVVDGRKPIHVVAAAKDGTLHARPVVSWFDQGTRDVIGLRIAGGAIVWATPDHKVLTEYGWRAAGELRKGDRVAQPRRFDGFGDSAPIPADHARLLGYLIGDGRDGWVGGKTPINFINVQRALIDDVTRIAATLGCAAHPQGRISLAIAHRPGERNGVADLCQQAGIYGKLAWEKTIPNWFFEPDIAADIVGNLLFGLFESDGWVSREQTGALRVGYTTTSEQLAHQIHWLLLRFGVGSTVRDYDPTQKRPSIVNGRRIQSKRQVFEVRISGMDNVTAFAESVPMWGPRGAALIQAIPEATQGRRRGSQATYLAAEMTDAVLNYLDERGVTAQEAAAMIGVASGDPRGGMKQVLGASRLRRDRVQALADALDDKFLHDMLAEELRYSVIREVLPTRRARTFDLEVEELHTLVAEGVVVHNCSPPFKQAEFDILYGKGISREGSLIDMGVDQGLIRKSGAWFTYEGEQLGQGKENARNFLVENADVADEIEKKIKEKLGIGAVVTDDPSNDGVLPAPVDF
In words: Fluorescence Cell-Free Homogeneous Dose Retest to Identify Inhibitors of RecA-Intein Splicing Activity. [Related pubchem assays (depositor defined):AID2097, AID2223, AID489010, AID492950]. The format is functional.

The target of the next experiment is SUMO-activating enzyme (Homo sapiens, UniProt Q9UBT2). In words: blockers of UBC9-mediated SUMO conjugation – biochemical, AlphaScreen, SUMOylation inhibitor project, confirmation (AID 2018). In kind it is functional.
In a further experiment the test system is H9c2. Briefly: cells. In kind it is functional, cell-based. Conditions: Rattus norvegicus, H9c2, Myocardium.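 Further: confirmatory concentration-response retest of ultra-high-throughput screening hits for modulation of myocardial damage; cell death induced by hydrogen peroxide oxidative stress; compound pretreatment for 60 min then peroxide exposure for 2 h; potency is for protecting the cells against peroxide damage rather than for killing them.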

Activity calls are given as the source filed them.

Glyceraldehyde-3-phosphate dehydrogenase, sequence (P04406 whole entry): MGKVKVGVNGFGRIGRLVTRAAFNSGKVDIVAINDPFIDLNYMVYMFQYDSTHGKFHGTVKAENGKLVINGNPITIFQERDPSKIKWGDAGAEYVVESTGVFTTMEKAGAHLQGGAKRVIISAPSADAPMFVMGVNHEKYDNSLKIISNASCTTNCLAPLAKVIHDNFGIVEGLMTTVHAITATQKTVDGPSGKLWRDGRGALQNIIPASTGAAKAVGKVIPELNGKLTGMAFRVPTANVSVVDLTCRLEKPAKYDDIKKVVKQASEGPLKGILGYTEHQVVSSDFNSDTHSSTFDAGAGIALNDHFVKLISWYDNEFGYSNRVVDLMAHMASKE
G-protein coupled receptor 55, sequence (Q9Y2T6 whole entry): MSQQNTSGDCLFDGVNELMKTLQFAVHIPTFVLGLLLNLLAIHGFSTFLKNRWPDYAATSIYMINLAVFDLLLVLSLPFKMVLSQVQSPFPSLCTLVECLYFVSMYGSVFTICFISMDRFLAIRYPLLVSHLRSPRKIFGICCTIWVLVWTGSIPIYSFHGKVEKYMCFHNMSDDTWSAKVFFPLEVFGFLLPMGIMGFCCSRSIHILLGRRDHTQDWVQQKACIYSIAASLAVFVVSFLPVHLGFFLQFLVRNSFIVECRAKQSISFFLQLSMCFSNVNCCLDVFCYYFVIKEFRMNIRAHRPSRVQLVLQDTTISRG
SUMO-activating enzyme, sequence (Q9UBE0 whole entry): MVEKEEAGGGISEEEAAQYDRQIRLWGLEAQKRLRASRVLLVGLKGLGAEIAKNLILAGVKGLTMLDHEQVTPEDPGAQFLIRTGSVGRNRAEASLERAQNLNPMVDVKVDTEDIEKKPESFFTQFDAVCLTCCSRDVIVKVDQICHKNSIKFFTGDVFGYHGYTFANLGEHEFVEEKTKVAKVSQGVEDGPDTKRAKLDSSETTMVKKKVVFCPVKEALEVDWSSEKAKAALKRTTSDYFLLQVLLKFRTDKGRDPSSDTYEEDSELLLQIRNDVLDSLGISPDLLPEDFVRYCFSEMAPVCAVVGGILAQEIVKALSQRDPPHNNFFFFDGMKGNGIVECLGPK
SUMO-activating enzyme, sequence (Q9UBT2 whole entry): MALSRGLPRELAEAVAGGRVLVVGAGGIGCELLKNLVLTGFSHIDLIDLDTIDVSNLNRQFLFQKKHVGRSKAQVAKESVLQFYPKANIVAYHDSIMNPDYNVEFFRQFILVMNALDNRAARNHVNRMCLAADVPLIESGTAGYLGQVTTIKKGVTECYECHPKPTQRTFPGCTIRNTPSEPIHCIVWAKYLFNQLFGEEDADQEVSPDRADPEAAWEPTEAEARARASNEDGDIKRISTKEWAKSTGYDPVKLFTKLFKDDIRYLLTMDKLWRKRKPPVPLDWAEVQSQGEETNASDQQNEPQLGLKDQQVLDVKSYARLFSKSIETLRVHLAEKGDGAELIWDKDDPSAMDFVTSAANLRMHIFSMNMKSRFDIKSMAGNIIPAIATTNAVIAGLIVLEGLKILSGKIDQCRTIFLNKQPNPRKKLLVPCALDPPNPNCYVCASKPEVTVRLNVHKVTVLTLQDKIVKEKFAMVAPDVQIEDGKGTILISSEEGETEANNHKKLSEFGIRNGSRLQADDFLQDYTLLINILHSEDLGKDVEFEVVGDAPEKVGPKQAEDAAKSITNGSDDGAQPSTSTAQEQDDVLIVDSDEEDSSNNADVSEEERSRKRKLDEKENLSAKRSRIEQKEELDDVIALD

Regarding `CC1CCCN(CCCNC(=O)c2ccc3c(c2)N(Cc2ccccc2F)C(=O)c2ccccc2S3(=O)=O)C1` (stereo unspecified), in experiment [1], the EC50 is 0.944 µM (active).

In the case of `Cn1nc(-c2ccc(F)cc2)cc1C(=O)O`, the values for the IC50 in experiment [2] and in [3] were > 100 µM (not active) and > 100 µM (inactive), respectively.

For `COc1cccc(Cc2nnc(N3C(=O)[C@H]4CCCC[C@H]4C3=O)[nH]2)c1`, the IC50 is > 100 µM (not active) in experiment [2] and 1.63 µM (active) in [3].

Turning to `O=C1c2ccccc2C(=O)N1c1nnc(-c2ccc(Cl)cc2)[nH]1`, the IC50 was > 100 µM (not active) in experiment [2] and 2.49 µM (active) in experiment [3].

As for `C/C=C(\C)CN1CCC(n2nccc2NC(=O)CCc2ccccc2)CC1`, the values for the EC50 in [4] and in experiment [1] were 0.299 µM (active) and 0.267 µM (active), respectively.

As to `CCSC1(SCC)N=C(N)C2(C#N)C(c3ccc(F)cc3)C12C#N` (stereo unspecified), the results for the EC50 (in experiment [5]; on Protein RecA) were 1.86 µM (active) and 12.5 µM (active), respectively. For the same molecule, the AC50 was 14 µM (active) in experiment [6] and 6.54 µM (active) in [7].

With `CN(C)C1(CNC(=O)c2ccc(Cl)c(S(=O)(=O)NCc3ccco3)c2)CCCCC1`, the EC50 in [1] was 0.119 µM (active).

Regarding `Nc1c(C(=O)N/N=C/c2cccnc2)oc2nc(-c3ccco3)cc(-c3ccco3)c12`, the IC50 at SUMO-activating enzyme was 8.88 µM (active); with H9c2, > 79 µM (inactive).

For orientation: EC50 means the midpoint of the concentration-response curve. For orientation: IC50 means the point on the concentration scale where inhibition reaches its midpoint. Usually AC50 stands for the concentration at which the activity in the assay is half-maximal.
